Results published in ChEMBL document CHEMBL1201862, “PubChem BioAssay data set” (2004).
Where “and” joins values, the source holds several entries; their conditions need not be identical. Equal entries are not always repeated.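 Interpolation was linear, between the two tested concentrations surrounding the appropriate level; five concentrations were tested over 48 hours in 96-well plates. Here, GI50 denotes the concentration required for 50% inhibition of growth.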 Calls of active or inactive are those of the source. Rule as the data show it: active = GI50 up to about 1.1 µM and inactive = higher. Numbered stars: 1 amine (or outer) side, 2 acyl side, 3 side chain; on linkers, the order of the positions; unused ones are H or OH. Bridge positions count the residues as written; N and C are the ends. Square brackets hold non-standard residues; d marks the D form. Peptide text beside a SMILES is read from it. X58 = COc1c(N[*:1])cccc1C(=O)O[C@H](C(=O)[C@H](C)C(=O)[*:2])C(C)C; X57 = CC(C)C[C@H](C(=O)[*:2])C(C)C(=O)C1CCCN1[*:1]; NMeY = CN[C@@H](Cc1ccc(O)cc1)C(=O)O; Lac = C[C@H](O)C(=O)O

How the values were obtained:
Experiment in all cases: NCI tumour cell line growth inhibition, 48 h
U-251 = test system: U-251
Malme-3M = test system: Malme-3M
OVCAR-8 = test system: OVCAR-8
HCC 2998 = test system: HCC 2998
TK-10 = test system: TK-10
Hs-578T = test system: Hs-578T
SW-620 = test system: SW-620
SK-MEL-2 = test system: SK-MEL-2
OVCAR-3 = test system: OVCAR-3
UACC-62 = test system: UACC-62
LOX IMVI = test system: LOX IMVI
DU-145 = test system: DU-145
KM12 = test system: KM12
A498 = test system: A498
SN12C = test system: SN12C
SNB-19 = test system: SNB-19
NCI-H226 = test system: NCI-H226
SNB-75 = test system: SNB-75
OVCAR-5 = test system: OVCAR-5
HOP-92 = test system: HOP-92

Measured: GI50

CC(=O)OCC1OC(n2c(C)c(C)cc(C#N)c2=S)C(OC(C)=O)C(OC(C)=O)C1OC(C)=O (configuration not stated)
inactive: U-251 > 100 µM | Malme-3M > 100 µM | OVCAR-8 > 100 µM | HCC 2998 > 100 µM | TK-10 > 100 µM | Hs-578T > 100 µM | SW-620 > 100 µM | SK-MEL-2 > 100 µM and 72.1 µM | OVCAR-3 > 100 µM | UACC-62 65.2 µM | LOX IMVI > 100 µM | DU-145 > 100 µM | KM12 > 100 µM | A498 > 100 µM | SN12C > 100 µM | SNB-19 > 100 µM | NCI-H226 > 100 µM

COc1ccccc1C(C1=C(O)COC1=O)c1cc2c(cc1OC(C)=O)OCO2 (configuration not stated)
inactive: U-251 > 100 µM | Malme-3M > 100 µM | OVCAR-8 > 100 µM | SNB-75 > 100 µM | HCC 2998 > 100 µM | OVCAR-5 > 100 µM | TK-10 > 100 µM | Hs-578T > 100 µM | SW-620 > 100 µM | OVCAR-3 > 100 µM | UACC-62 > 100 µM | LOX IMVI > 100 µM | DU-145 > 100 µM | KM12 > 100 µM | A498 > 100 µM | SN12C > 100 µM | SNB-19 > 100 µM | NCI-H226 > 100 µM

O=C(NNC(=O)c1ccccc1Cl)c1ccccc1O
inactive: U-251 > 100 µM | Malme-3M 4.24 µM | OVCAR-8 19.8 µM | SNB-75 20.5 µM | OVCAR-5 > 100 µM | TK-10 > 100 µM | Hs-578T 41.9 µM | SW-620 71.6 µM | SK-MEL-2 53.7 µM | OVCAR-3 25.2 µM | UACC-62 35.7 µM | LOX IMVI 38.1 µM | DU-145 > 100 µM | KM12 20.1 µM | A498 > 100 µM | SN12C > 100 µM | SNB-19 > 100 µM | NCI-H226 3.42 µM

NC(=O)c1nnc2cc(F)c(F)cc2c1N
inactive: U-251 22.3 µM | Malme-3M 29.7 µM | OVCAR-8 37.3 µM | SNB-75 16.7 µM | HCC 2998 > 100 µM | OVCAR-5 57.3 µM | TK-10 35.2 µM | Hs-578T 26.7 µM | SW-620 > 100 µM | SK-MEL-2 15 µM | OVCAR-3 > 100 µM | UACC-62 31.3 µM | LOX IMVI 57.3 µM | DU-145 74.3 µM | KM12 > 100 µM | A498 41.1 µM | SN12C 84.9 µM | SNB-19 30.8 µM | NCI-H226 11.9 µM

CCOC(=O)c1c(-c2ccccc2)c(OC)cn1C
inactive: U-251 > 10 µM | Malme-3M > 10 µM | OVCAR-8 > 10 µM | SNB-75 > 10 µM | HCC 2998 > 10 µM | OVCAR-5 > 10 µM | TK-10 > 10 µM | Hs-578T > 10 µM | SW-620 > 10 µM | SK-MEL-2 > 10 µM | OVCAR-3 > 10 µM | UACC-62 > 10 µM | LOX IMVI > 10 µM | DU-145 > 10 µM | KM12 > 10 µM | A498 > 10 µM | SN12C > 10 µM | SNB-19 > 10 µM | NCI-H226 > 10 µM

Cc1ccc(S(=O)(=O)N2CCN3C(=O)c4ccccc4C32c2ccc(F)cc2)cc1 (configuration not stated)
inactive: U-251 > 100 µM | Malme-3M > 100 µM | OVCAR-8 > 100 µM | SNB-75 72.1 µM | HCC 2998 > 100 µM | OVCAR-5 > 100 µM | TK-10 > 100 µM | Hs-578T > 100 µM | SW-620 87.9 µM | SK-MEL-2 55.6 µM | OVCAR-3 > 100 µM | UACC-62 44.9 µM | DU-145 78.7 µM | KM12 43.7 µM | A498 16.2 µM | SN12C 32.7 µM | SNB-19 > 100 µM | NCI-H226 64 µM

COC1(OC)c2no[n+]([O-])c2C(OC)(OC)c2c1no[n+]2[O-]
inactive: Malme-3M 14.4 µM | OVCAR-8 13.4 µM | SNB-75 18.3 µM | HCC 2998 21 µM | OVCAR-5 21.3 µM | TK-10 16.1 µM | Hs-578T 31.4 µM | SW-620 17.9 µM | SK-MEL-2 21.1 µM | OVCAR-3 7.85 µM | UACC-62 11.2 µM | LOX IMVI 14.9 µM | DU-145 28.3 µM | KM12 11.7 µM | A498 19.1 µM | SN12C 20.4 µM | SNB-19 24.5 µM | NCI-H226 24.5 µM

Oc1ccc2c3c1OC1c4[nH]ncc4C[C@H]4[C@@H](C2)N(CC2CC2)CC[C@]314 (some centres not stated)
inactive: U-251 > 100 µM | Malme-3M > 100 µM | OVCAR-8 > 100 µM | SNB-75 78.5 µM | HCC 2998 > 100 µM | OVCAR-5 > 100 µM | TK-10 > 100 µM | Hs-578T > 100 µM | SK-MEL-2 > 100 µM | OVCAR-3 > 100 µM | UACC-62 > 100 µM | LOX IMVI > 100 µM | DU-145 > 100 µM | HOP-92 > 100 µM | KM12 > 100 µM | SN12C > 100 µM | SNB-19 > 100 µM | NCI-H226 > 100 µM

COc1ccc(C[C@H]2C(=O)O[C@H](C)[C@H](NC(=O)[C@@H](CC(C)C)C(C)C(=O)C3CCCN3C(=O)[C@H](C)O)C(=O)Nc3cccc(c3OC)C(=O)O[C@@H](C(C)C)C(=O)[C@H](C)C(=O)N[C@@H](CC(C)C)C(=O)N3CCC[C@H]3C(=O)N2C)cc1 (some centres not stated) (H-[Lac][X57]T[X58]LP[NMeY](Me); ester 3-C)
inactive: U-251 > 12.5 µM | Malme-3M > 12.5 µM | OVCAR-8 > 12.5 µM | SNB-75 2.81 µM | HCC 2998 3.82 µM | OVCAR-5 > 12.5 µM | TK-10 > 12.5 µM | Hs-578T > 12.5 µM | SW-620 9.29 µM | SK-MEL-2 > 12.5 µM | OVCAR-3 7.38 µM | UACC-62 > 12.5 µM | LOX IMVI 9.66 µM | DU-145 > 12.5 µM | HOP-92 > 12.5 µM | KM12 > 12.5 µM | SN12C > 12.5 µM | SNB-19 11 µM | NCI-H226 7.26 µM

Cn1ccc2c(c1=O)C(=O)OC2(C)C [CERPEGIN]
inactive: U-251 > 100 µM | Malme-3M 65.6 µM | OVCAR-8 > 100 µM | SNB-75 > 100 µM | HCC 2998 > 100 µM | OVCAR-5 > 100 µM | TK-10 > 100 µM | Hs-578T > 100 µM | SW-620 > 100 µM | OVCAR-3 > 100 µM | UACC-62 > 100 µM | LOX IMVI > 100 µM | DU-145 > 100 µM | KM12 > 100 µM | A498 > 100 µM | SN12C > 100 µM | SNB-19 25.5 µM | NCI-H226 > 100 µM
